This is an account of results in US9828375B2, “4-position substituted pyrazolopyrimidine derivative, and use thereof in drug preparation” (Guangxi Wuzhou Pharmaceuticals (Group) Co., Ltd., priority 2012, dated 2017).

One assay deals with FGFR1 (Homo sapiens, UniProt P11362). Kind of assay: Kinase inhibition activity test, isotope labeling: FGFR1. As to conditions: ATP 200 μM; read-out: FGFR1 IC50 value (inhibitory activity value). In kind it is biochemical. How it is done:
(§1) The purpose of this experiment was to test the inhibitory activity of the compound of the invention for in vitro kinase with the isotope labeling method (the γ phosphate group on ATP was labeled). In this experiment, the in vitro activity inhibition of such kinases as FLT3, VEGFR2, FLT1, FLT4, RET, c-RAF, B-RAF, c-KIT, PDGFα, PDGFβ, FGFR2, FGFR1, EphA2, EphB2, SRC, ABL, ALK and Met was tested respectively. Staurosporine was reference molecule (or referred to as positive control). The kinase inhibition activity of the test compound was expressed by half-inhibitory concentration (IC50) or the kinase activity inhibition rate of the test compound at a concentration of 10 μM. The IC50 value could be obtained by calculating the kinase activity inhibition rate of the test compound at different concentrations.
(§2) 20 mM 3-(N-morpholinyl)propanesulfonic acid (MOPS); 1 mM ethylenediaminetetraacetic acid (EDTA), 0.01% Brij 35 (Brij-35), 5% glycerol, 0.1% mercaptoethanol, 1 mg/mL bovine serum albumin (BSA), 10 mM manganous dichloride solution (MnCl2), 0.1 mg/mL glutamic acid/tyrosine (4:1) polypeptide (poly(Glu, Tyr)4:1), 50 μM EAIYAAPFAKKK (substrate of FLT3), 0.33 mg/mL myelin basic protein (substrate of VEGFR2), 250 μM KKKSPGEYVNIEFG (substrate of FLT1(h)), 500 μM GGEEEEYFELVKKKK (substrate of FLT4(h)), 250 μM KKKSPGEYVNIEFG (substrate of RET), 0.66 mg/mL myelin basic protein (substrate of C-RAF), 250 μM GGMEDIYFEFMGGKKK (substrate of c-Kit), 250 μM GGMEDIYFEFMGGKKK (substrate of PDGFα), 250 μM KKKSPGEYVNIEFG (substrate of FGFR1), […] GGEEEEYFELVKKKK (substrate of SRC), 50 μM EAIYAAPFAKKK (substrate of ABL), 250 μM KKKSPGEYVNIEFG (substrate of ALK), 250 μM KKKSPGEYVNIEFG (substrate of Met(h)), 10 mM magnesium acetate and γ-^33 P-ATP solution, stop buffer (3% phosphate buffer), washing buffer (75 mM phosphate solution), methanol, Filtermat A membrane, FLT3, VEGFR2, FLT3, VEGFR2, FLT1, FLT4, RET, c-RAF, B-RAF, c-KIT, PDGFRα, PDGFRβ, FGFR2, FGFR1, EphA2, EphB2, SRC, ABL, ALK, Met and other kinases, and the test compounds.
(§3) Buffers (8 mM MOPS with pH value of 7.0, 0.2 mM EDTA and 10 mM MnCl2), (5-10 mU) kinases to be tested (FLT3, VEGFR2, FLT1, FLT4, RET, c-RAF, B-RAF, c-KIT, PDGFRα, PDGFRβ, FGFR2, FGFR1, EphA2, EphB2, SRC, ABL, ALK and Met), substrates of kinases to be tested (refer to experimental materials), 10 mM magnesium acetate and γ-^33 P-ATP solution, and test compounds at different concentrations were added to a reaction tube orderly. […] Reaction was terminated with 5 μL 3% phosphate buffer finally, and 10 μL reaction solution was titrated to the Filtermat A membrane; solution was washed for 3 times with 75 mM phosphate solution with each time lasting 5 minutes, and then washed once with methanol. […]

For another assay, the system named is Abl/Abl (T315I)(h). Kind of assay: Kinase inhibition activity test, isotope labeling: Abl. The class given is biochemical, human. As to conditions: test compound at a concentration of 10 μM. How it is done:
as §1, §2
Buffers (8 mM MOPS with pH value of 7.0, 0.2 mM EDTA and 10 mM MnCl2), (5-10 mU) kinases to be tested (FLT3, VEGFR2, FLT1, FLT4, RET, c-RAF, B-RAF, c-KIT, PDGFRα, PDGFRβ, FGFR2, FGFR1, EphA2, EphB2, SRC, ABL, ALK and Met), substrates of kinases to be tested (refer to experimental materials), 10 mM magnesium acetate and γ-^33 P-ATP solution, and test compounds at different concentrations were added to a reaction tube orderly. […] Reaction was terminated with 5 μL 3% phosphate buffer finally, and 10 μL reaction solution was titrated to the Filtermat A membrane; solution was washed for 3 times with 75 mM phosphate solution with each time lasting 5 minutes, and then washed once with methanol. Finally, the Filtermat A membrane was dried, and scintillation counting was performed on the membrane, with scintillation count reflecting the phosphorylation degree of the substrates, so that the activity inhibition of kinase could be characterized.

Another assay concerns the target FLT1 (Homo sapiens, UniProt P17948). Kind of assay: Kinase inhibition activity test, isotope labeling: FLT1. The class given is biochemical. The note with it: ATP 200 μM; read-out: FLT1 IC50 value (inhibitory activity value). Here is the method:
as §1, §2, §3

The test system of assay [1] is human malignant melanoma cell line A375. Kind of assay: In vitro tumor cell proliferation inhibition (MTT): A375. In kind it is cell-based. The source says:
(§4) The purpose of the experiment was to test the inhibition activity of the compounds of the invention for in vitro human tumor cell proliferation by the methyl thiazolyl tetrazolium (MTT) colorimetry.
(§5) Main reagents: RPMI-1640, fetal bovine serum, pancreatin, etc. were purchased from Gibco BRL Company (Invitrogen Corporation, USA) and IMDM medium that was purchased from American Type Culture Collection (ATCC). Methyl thiazolyl tetrazolium (MTT) and dimethyl sulfoxide (DMSO) were products from Sigma Company (USA). Pyrazolopyrimidine derivatives were composed by the inventor. During in vitro experiment, 100% DMSO was prepared into 10 mM storage solution, the solution was stored in a refrigerator at −20° C. for future use, and was diluted to the required concentration with complete culture solution before use.
(§6) Cell line and culture: Human leukemia cell line MV4-11, Jurkat, K562, human thyrophyma cell line TT, human gastric carcinoma cell line MKN-45, human malignant melanoma cell lines A375 and A875, human pancreatic carcinoma cell line panc-1, human cervical carcinoma cell line HELA, human colorectal carcinoma cell line HCT116, etc. were purchased from American type culture collection and were preserved by this laboratory. All leukemia cell lines (except MV4-11), gastric carcinoma cell lines and thyrophyma cell lines were cultured in RPMI-1640 complete medium containing 10% fetal bovine serum, 100 U/mL penicillin and 100 μg/mL streptomycin at 37° C. in 5% CO2. The remaining cell lines were cultured in DMEM complete medium containing 10% fetal bovine serum (containing 20% MV4-11 cell), 100 U/mL penicillin and 100 µg/mL streptomycin at 37° C. in 5% CO2.
(§7) Cell suspension with cell concentration of 1-2×10^4/mL was adjusted with the complete cell medium and inoculated in a 96-well plate, with each well filled with 200 μl cell suspension that was cultured overnight. On the next day, supernatant was sucked and abandoned (supernatant was sucked upon centrifugation of suspension cells), and then cells were processed with test compounds at gradient concentrations respectively. Meanwhile, a negative control group free from drug and a solvent control group with equal volume were set, and the DMSO concentration was 0.1%. Each dose group was provided with three wells and cultured at 37° C. in 5% CO2. After 72 hours, 20 μl 5 mg/mL MTT reagent was added to each well, and cultured for another 2 to 4 hours, the supernatant was abandoned; 150 μL DMSO was added to each well again, vibrated and mixed evenly for 15 minutes; the absorbance (A) values (proportional to living cell amount) were determined with a microplate reader (λ=570 nm) and averaged. […] Experiment was repeated for 3 times at least. Experimental data were expressed with means, data statistics were tested by t, and P<0.05 means that difference has a statistical significance. The cell proliferation inhibition effects of all compounds as follows are expressed by IC50 or inhibition rate.

Assay [2] relates to human thyrophyma cell line TT. Kind of assay: In vitro tumor cell proliferation inhibition (MTT): TT. The class given is cell-based.
Source text: as §4, §5, §6, §7

Bounds are passed on as bounds.

FLT1, sequence (P17948 27-1338): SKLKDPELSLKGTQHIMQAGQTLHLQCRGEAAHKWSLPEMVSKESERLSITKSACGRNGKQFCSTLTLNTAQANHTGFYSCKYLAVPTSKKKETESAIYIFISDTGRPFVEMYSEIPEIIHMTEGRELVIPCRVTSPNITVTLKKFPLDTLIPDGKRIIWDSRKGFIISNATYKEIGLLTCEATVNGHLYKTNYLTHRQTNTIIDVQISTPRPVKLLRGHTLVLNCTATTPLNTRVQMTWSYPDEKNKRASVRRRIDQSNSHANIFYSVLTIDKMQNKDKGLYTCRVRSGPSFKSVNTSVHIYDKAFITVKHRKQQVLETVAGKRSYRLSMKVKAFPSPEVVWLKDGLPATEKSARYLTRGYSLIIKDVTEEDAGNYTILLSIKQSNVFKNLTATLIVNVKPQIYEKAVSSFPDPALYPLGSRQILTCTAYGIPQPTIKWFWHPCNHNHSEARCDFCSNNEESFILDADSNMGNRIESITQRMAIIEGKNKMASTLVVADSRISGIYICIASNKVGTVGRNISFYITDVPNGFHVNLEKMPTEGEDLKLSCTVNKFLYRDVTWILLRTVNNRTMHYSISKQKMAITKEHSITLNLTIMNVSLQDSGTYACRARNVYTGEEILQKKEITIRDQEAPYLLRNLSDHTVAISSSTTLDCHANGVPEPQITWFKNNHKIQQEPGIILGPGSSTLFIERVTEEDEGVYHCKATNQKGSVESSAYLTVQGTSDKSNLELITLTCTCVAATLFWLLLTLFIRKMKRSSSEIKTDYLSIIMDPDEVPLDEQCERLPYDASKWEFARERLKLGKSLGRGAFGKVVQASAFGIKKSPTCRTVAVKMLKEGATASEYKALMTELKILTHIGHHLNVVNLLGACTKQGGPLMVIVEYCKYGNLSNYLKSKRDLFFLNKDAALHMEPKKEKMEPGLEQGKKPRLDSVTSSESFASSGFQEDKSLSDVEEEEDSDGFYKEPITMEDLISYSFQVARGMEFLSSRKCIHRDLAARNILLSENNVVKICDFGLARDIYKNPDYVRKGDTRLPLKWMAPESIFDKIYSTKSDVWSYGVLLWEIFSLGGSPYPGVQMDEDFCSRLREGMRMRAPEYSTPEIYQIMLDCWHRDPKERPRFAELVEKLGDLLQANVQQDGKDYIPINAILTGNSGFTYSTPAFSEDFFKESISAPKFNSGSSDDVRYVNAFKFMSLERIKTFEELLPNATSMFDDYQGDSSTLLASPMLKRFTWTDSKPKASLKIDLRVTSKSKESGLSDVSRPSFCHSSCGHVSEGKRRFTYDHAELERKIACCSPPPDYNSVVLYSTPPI
FGFR1, sequence (P11362 22-822): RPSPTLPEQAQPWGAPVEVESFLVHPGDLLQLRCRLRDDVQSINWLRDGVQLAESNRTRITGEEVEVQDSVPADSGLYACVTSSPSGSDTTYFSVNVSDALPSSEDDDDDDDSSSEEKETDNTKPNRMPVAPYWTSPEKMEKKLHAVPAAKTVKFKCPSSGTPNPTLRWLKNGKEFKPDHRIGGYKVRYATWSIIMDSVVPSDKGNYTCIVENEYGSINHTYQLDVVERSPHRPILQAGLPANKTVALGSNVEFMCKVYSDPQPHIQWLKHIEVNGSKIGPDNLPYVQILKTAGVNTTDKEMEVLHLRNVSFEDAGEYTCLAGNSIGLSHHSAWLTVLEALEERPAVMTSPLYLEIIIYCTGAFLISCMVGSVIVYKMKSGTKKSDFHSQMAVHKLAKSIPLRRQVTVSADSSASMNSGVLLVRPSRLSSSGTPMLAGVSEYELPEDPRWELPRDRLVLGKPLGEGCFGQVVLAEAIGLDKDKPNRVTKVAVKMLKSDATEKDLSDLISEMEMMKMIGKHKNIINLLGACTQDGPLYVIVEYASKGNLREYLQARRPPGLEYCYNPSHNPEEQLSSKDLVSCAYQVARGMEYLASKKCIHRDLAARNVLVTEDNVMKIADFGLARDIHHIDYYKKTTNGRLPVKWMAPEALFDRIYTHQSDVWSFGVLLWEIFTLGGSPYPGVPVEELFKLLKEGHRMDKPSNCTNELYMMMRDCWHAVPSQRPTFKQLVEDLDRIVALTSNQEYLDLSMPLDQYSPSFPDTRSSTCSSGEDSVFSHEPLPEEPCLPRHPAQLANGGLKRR

Turning to `O=C(Nc1ccc(Oc2ncnc3[nH]ncc23)cc1)Nc1ccc(Cl)c(C(F)(F)F)c1` [4a-2], the IC50 was under 10 µM at FGFR1, under 10 µM on FLT1, 2.12 µM in assay [1] (72 hours) and 3.42 µM in assay [2] (72 hours). Also, the “Activity inhibition rate Abl/Abl (T315I)(h)” value in the assay with Abl/Abl (T315I)(h) is recorded as 86%.
With `O=C(Nc1ccc(Oc2ncnc3[nH]ncc23)cc1)Nc1cccc(C(F)(F)F)c1` [4a-6], the IC50 on FGFR1 came to 2.25 µM; at FLT1 it was 0.005 µM; in assay [1] (Homo sapiens, A-375, 72 hours), 3.45 µM; in assay [2] (Homo sapiens, 72 h) it was 0.312 µM. For the same compound, the “Activity inhibition rate Abl/Abl (T315I)(h)” value in the assay with Abl/Abl (T315I)(h) stood at 79%.
On to `CC(C)(C)c1cc(NC(=O)Nc2ccc(Oc3ncnc4[nH]ncc34)cc2)on1` [4a-25], for which the IC50 on FGFR1 was under 10 µM; on FLT1, under 10 µM; in assay [1] (72 hours) it was 3 to 10 µM; in assay [2] (72 hours), 1.02 µM. The “Activity inhibition rate Abl/Abl (T315I)(h)” value in the assay on Abl/Abl (T315I)(h) is over 50%.
Regarding `CC(C)(C)c1cc(NC(=O)Nc2ccc(Oc3ncnc4[nH]ncc34)c(F)c2)no1` [4a-31], the IC50 was under 10 µM on FGFR1, under 10 µM at FLT1, 3 to 10 µM in assay [1] (72 hours) and 0.943 µM in assay [2] (72 hours). Besides, in the assay on Abl/Abl (T315I)(h), the “Activity inhibition rate Abl/Abl (T315I)(h)” value was over 50%.
`O=C(Nc1ccc(Sc2ncnc3[nH]ncc23)cc1)Nc1cccc(C(F)(F)F)c1` [4c-2]: the “Activity inhibition rate Abl/Abl (T315I)(h)” value in the assay with Abl/Abl (T315I)(h) is listed as over 30%. Moreover, the IC50 in assay [1] (72 hours) is under 50 µM; in assay [2] (72 hours), 7.89 µM.
With `CC(C)(C)c1cc(NC(=O)Nc2ccc(Sc3ncnc4[nH]ncc34)cc2)no1` [4c-3, 1-(4-(1H-pyrazolopyrimidine-4-sulfydryl)phenyl)-3-(5-tert-butylisoxazol-3-yl)urea], the “Activity inhibition rate Abl/Abl (T315I)(h)” value with Abl/Abl (T315I)(h) is on record as over 30%. The values for the IC50 in assay [1] (72 hours) and in assay [2] (72 hours) were under 50 µM and 3 to 10 µM, respectively.
